Where two headings read alike, the source gives them in different places.
Columns and labels:
Experiment in all cases: preservation efficacy test (PET), European Pharmacopoeia 5.1.3
Type in all cases: cell-based
Pseudomonas aeruginosa = conditions: for PA germ count, 2 days / PA germ count, 7 days / PA germ count, 14 days / PA germ count, 28 days: substance at given % in test formulation
Staphylococcus aureus = system: Staphylococcus aureus
Escherichia coli = conditions: for EC germ count, 2 days / EC germ count, 7 days / EC germ count, 14 days / EC germ count, 28 days: substance at given % in test formulation
Candida albicans = conditions: for count at 14 days / CA germ count, 14 days: 14 days after inoculation; for CA germ count, 7 days / CA germ count, 14 days / CA germ count, 28 days / CA germ count, 2 days: substance at given % in test formulation
Aspergillus brasiliensis = system: Aspergillus brasiliensis
[1] = PA, 2 days after inoculation, use concentration in label
[2] = PA, 7 days after inoculation, use concentration in label
[3] = PA, 14 days after inoculation, use concentration in label
[4] = PA, 28 days after inoculation, use concentration in label
[5] = SA, 7 days after inoculation, use concentration in label
[6] = EC, 2 days after inoculation, use concentration in label
[7] = EC, 7 days after inoculation, use concentration in label
[8] = EC, 14 days after inoculation, use concentration in label
[9] = CA, 28 days after inoculation, use concentration in label
[10] = AB, 7 days after inoculation, use concentration in label
[11] = AB, 14 days after inoculation, use concentration in label
[12] = AB, 28 days after inoculation, use concentration in label
[13] = 2 days after inoculation, substance at given % in test formulation
[14] = 7 days after inoculation, substance at given % in test formulation
[15] = 14 days after inoculation, substance at given % in test formulation
[16] = 28 days after inoculation, substance at given % in test formulation

CC(O)C(=O)[O-].[Na+] (stereo not drawn) [0.8% sodium lactate (50%)]
count at 2 days (Pseudomonas aeruginosa; [1]): 1 | count at 7 days (Pseudomonas aeruginosa; [2]): 1 | count at 14 days (Pseudomonas aeruginosa; [3]): 1 | count at 28 days (Pseudomonas aeruginosa; [4]): 1 | count at 2 days (Staphylococcus aureus; SA, 2 days after inoculation, use concentration in label): 190.000 | count at 7 days (Staphylococcus aureus; [5]): 150.000 | count at 14 days (Staphylococcus aureus; SA, 14 days after inoculation, use concentration in label): 170.000 | count at 28 days (Staphylococcus aureus; SA, 28 days after inoculation, use concentration in label): 18.000 | count at 2 days (Escherichia coli; [6]): 440.000 | count at 7 days (Escherichia coli; [7]): 210.000 | count at 14 days (Escherichia coli; [8]): 210.000 | count at 28 days (Escherichia coli; EC, 28 days after inoculation, use concentration in label): 850 | count at 2 days (Candida albicans; CA, 2 days after inoculation, use concentration in label): 930.000 | count at 7 days (Candida albicans; CA, 7 days after inoculation, use concentration in label): 800.000 | count at 14 days (Candida albicans; CA, use concentration in label): 890.000 | count at 28 days (Candida albicans; [9]): 260.000 | count at 2 days (Aspergillus brasiliensis; AB, 2 days after inoculation, use concentration in label): 910.000 | count at 7 days (Aspergillus brasiliensis; [10]): 730.000 | count at 14 days (Aspergillus brasiliensis; [11]): 440.000 | count at 28 days (Aspergillus brasiliensis; [12]): 190.000

O=C([O-])CC[C@@H](C(=O)[O-])N(CC(=O)[O-])CC(=O)[O-].[Na+].[Na+].[Na+].[Na+]
count at 2 days (Pseudomonas aeruginosa; [1]): 43.000 | count at 7 days (Pseudomonas aeruginosa; [2]): 95.000 | count at 14 days (Pseudomonas aeruginosa; [3]): 510.000 | count at 28 days (Pseudomonas aeruginosa; [4]): 350.000 | count at 7 days (Staphylococcus aureus; [5]): 810.000 | count at 2 days (Escherichia coli; [6]): 50.000 | count at 7 days (Escherichia coli; [7]): 23.000 | count at 14 days (Escherichia coli; [8]): 450.000 | count at 14 days (Candida albicans; CA, use concentration in label): 200.000 | count at 28 days (Candida albicans; [9]): 390.000 | count at 7 days (Aspergillus brasiliensis; [10]): 440.000 | count at 14 days (Aspergillus brasiliensis; [11]): 720.000 | count at 28 days (Aspergillus brasiliensis; [12]): 660.000

O=C(OCc1ccccc1)c1ccccc1O [0.2% Benzyl Salicylate]
PA germ count, 2 days (Pseudomonas aeruginosa; 2 days after inoculation): 1.200 | PA germ count, 7 days (Pseudomonas aeruginosa; 7 days after inoculation): 790 | PA germ count, 14 days (Pseudomonas aeruginosa; 14 days after inoculation): 160.000 | PA germ count, 28 days (Pseudomonas aeruginosa; 28 days after inoculation): 44.000 | SA germ count, 2 days (Staphylococcus aureus; [13]): 670.000 | SA germ count, 7 days (Staphylococcus aureus; [14]): 9.200 | SA germ count, 14 days (Staphylococcus aureus; [15]): 1 | SA germ count, 28 days (Staphylococcus aureus; [16]): 1 | EC germ count, 2 days (Escherichia coli; 2 days after inoculation): 250.000 | EC germ count, 7 days (Escherichia coli; 7 days after inoculation): 13.000 | EC germ count, 14 days (Escherichia coli; 14 days after inoculation): 640 | EC germ count, 28 days (Escherichia coli; 28 days after inoculation): 430 | CA germ count, 7 days (Candida albicans; 7 days after inoculation): 600.000 | CA germ count, 14 days (Candida albicans): 370.000 | CA germ count, 28 days (Candida albicans; 28 days after inoculation): 390.000 | AB germ count, 14 days (Aspergillus brasiliensis; [15]): 750.000 | AB germ count, 28 days (Aspergillus brasiliensis; [16]): 630.000

O=C([O-])c1ccccc1.[Na+] [0.2% Sodium Benzoate]
count at 2 days (Pseudomonas aeruginosa): 1 | count at 7 days (Pseudomonas aeruginosa): 1 | count at 14 days (Pseudomonas aeruginosa): 1 | count at 28 days (Pseudomonas aeruginosa): 1 | count at 2 days (Staphylococcus aureus): 320.000 | count at 7 days (Staphylococcus aureus): 74.000 | count at 14 days (Staphylococcus aureus): 1 | count at 28 days (Staphylococcus aureus): 1 | count at 2 days (Escherichia coli): 130.000 | count at 7 days (Escherichia coli): 11.000 | count at 14 days (Escherichia coli): 1 | count at 28 days (Escherichia coli): 1 | count at 7 days (Candida albicans): 250.000 | count at 28 days (Candida albicans): 1 | count at 2 days (Aspergillus brasiliensis): 760.000 | count at 7 days (Aspergillus brasiliensis): 880.000 | count at 14 days (Aspergillus brasiliensis): 200.000 | count at 28 days (Aspergillus brasiliensis): 230.000

COC(=O)c1ccc(O)cc1 [0.1% Methylparaben]
PA germ count, 2 days (Pseudomonas aeruginosa; 2 days after inoculation): 1 | PA germ count, 7 days (Pseudomonas aeruginosa; 7 days after inoculation): 1 | PA germ count, 14 days (Pseudomonas aeruginosa; 14 days after inoculation): 1 | PA germ count, 28 days (Pseudomonas aeruginosa; 28 days after inoculation): 1 | SA germ count, 7 days (Staphylococcus aureus; [14]): 6.100 | SA germ count, 14 days (Staphylococcus aureus; [15]): 140 | SA germ count, 28 days (Staphylococcus aureus; [16]): 1 | EC germ count, 2 days (Escherichia coli; 2 days after inoculation): 680.000 | EC germ count, 7 days (Escherichia coli; 7 days after inoculation): 18.000 | EC germ count, 14 days (Escherichia coli; 14 days after inoculation): 45 | EC germ count, 28 days (Escherichia coli; 28 days after inoculation): 1 | CA germ count, 2 days (Candida albicans; 2 days after inoculation): 100.000 | CA germ count, 7 days (Candida albicans; 7 days after inoculation): 210.000 | CA germ count, 14 days (Candida albicans): 85.000 | CA germ count, 28 days (Candida albicans; 28 days after inoculation): 11.000 | AB germ count, 2 days (Aspergillus brasiliensis; [13]): 300.000 | AB germ count, 7 days (Aspergillus brasiliensis; [14]): 690.000 | AB germ count, 14 days (Aspergillus brasiliensis; [15]): 300.000 | AB germ count, 28 days (Aspergillus brasiliensis; [16]): 240.000

CCOC(=O)c1ccc(O)cc1 [0.1% Ethylparaben]
PA germ count, 2 days (Pseudomonas aeruginosa; 2 days after inoculation): 1 | PA germ count, 7 days (Pseudomonas aeruginosa; 7 days after inoculation): 1 | PA germ count, 14 days (Pseudomonas aeruginosa; 14 days after inoculation): 1 | PA germ count, 28 days (Pseudomonas aeruginosa; 28 days after inoculation): 1 | SA germ count, 7 days (Staphylococcus aureus; [14]): 38.000 | SA germ count, 14 days (Staphylococcus aureus; [15]): 1 | SA germ count, 28 days (Staphylococcus aureus; [16]): 1 | EC germ count, 2 days (Escherichia coli; 2 days after inoculation): 440.000 | EC germ count, 7 days (Escherichia coli; 7 days after inoculation): 62.000 | EC germ count, 14 days (Escherichia coli; 14 days after inoculation): 280 | EC germ count, 28 days (Escherichia coli; 28 days after inoculation): 390 | CA germ count, 2 days (Candida albicans; 2 days after inoculation): 380.000 | CA germ count, 7 days (Candida albicans; 7 days after inoculation): 200.000 | CA germ count, 14 days (Candida albicans): 170.000 | CA germ count, 28 days (Candida albicans; 28 days after inoculation): 260.000 | AB germ count, 7 days (Aspergillus brasiliensis; [14]): 630.000 | AB germ count, 14 days (Aspergillus brasiliensis; [15]): 800.000 | AB germ count, 28 days (Aspergillus brasiliensis; [16]): 730.000

Source: patent US20230293407A1, “Compositions Comprising (Bio)-Alkanediols with Antimicrobials for Product Protection” (Symrise AG, priority 2020, published 2023)
